According to publication PMC10439230 (Scientific Reports, 2023):

Columns and labels:
[1] = tested on: MDA-MB-231 cells; assay: Cell death analysis, annexin V/7-AAD double staining, flow cytometry; format: cell-based, human; conditions: MDA-MB-231 cells, 24–48 h treatment
Method: Mode of cell death induced by compound 4l was explored using MDA-MB-231 cells by observing change in cell morphology and flow cytometric analysis of annexin V/7-AAD double stained cells. […] Accidental cell death necrosis is typically indicated by the immediate production of bubbles on the cell surface after treatment. […] Additionally, vacuole accumulation was not observed in the treated cells until 48 h after treatment (Fig. 3a). Taken together, we hypothesized that 4l-induced cell death in MDA-MB-231 cells was not processed through necrosis or vacuole-presenting regulated cell death such as autophagy.
Briefly, MDA-MB-231 cells were seeded into 6-well culture plates at 1 × 10^6 cells/well and left in a CO2 incubator for 24 h. Subsequently, the cells were treated with tested compounds for 24–48 h. DMSO was used as a vehicle and its final concentration was kept at 0.2% (v/v) throughout the study. The treated cells were harvested by trypsinization and subjected to annexin V/7-AAD double staining using Muse® Annexin V & Dead Cell Kit as previously described. The stained cells were analyzed by flow cytometric technique using Muse® Cell Analyzer. Population of annexin V-positive cells was defined as early apoptotic cells, and the population positive for both annexin V and 7-AAD was defined as late apoptotic cells. The sequential events of increasing early and late apoptotic cell populations over time is a characteristic of apoptotic cell death.

[2] = tested on: phospho-FAK (Y397); assay: Western blot analysis of FAK phosphorylation; format: cell-based, human; conditions: MDA-MB-231 cells, 16 μM, 24 h
Method: We further investigated targets of compound 4l on cell survival signaling pathways including EGFR, FAK, Akt, and ERK in MDA-MB-231 cells. After treatment with 4l at concentrations of 25–50 µM for 24 h, activation (phosphorylation) of the signaling pathways was determined by using western blot analysis.
MDA-MB-231 cells in 6-well culture plates (1 × 10^6 cells/well) were treated with tested compounds for 24 h. Then the cells were harvested and western blot analysis was used to detect alteration of targeted proteins in the treated cells, as previously described. Briefly, the cells in 6-well culture plates were scraped in RIPA cell lysis buffer supplemented with protease/phosphatase inhibitor cocktail before being lysed by sonication. Cell lysates were centrifuged at 12,000×g for 5 min, at 4 °C, to remove cell debris. Total proteins (20 μg) in the cell lysates were separated by SDS-PAGE and blotted to PVDF membranes. The membranes were blocked with 3% (w/v) BSA and incubated overnight at 4 °C with primary antibodies specific to the following proteins: EGFR, phospho-EGFR (Y845), FAK, phospho-FAK (Y397), Akt, phospho-Akt (S473), ERK, and phospho-ERK (T202/Y204). […] Bands of specific proteins were detected by using SuperSignal™ ECL substrates and visualized on X-ray films.

[3] = tested on: MRC-5 normal embryonic lung fibroblast cell line; assay: Cytotoxic activity assay (MTT), normal cells; format: cell-based; conditions: Homo sapiens, MRC5, 48 h exposure, read-out: Cell lines, IC50 (μM) MRC-5
Text: (§1) The synthetic compounds were screened for their cytotoxic activity using standard MTT or XTT methods[30] against a panel of nine human cancer cell lines and one normal cell line, including MDA-MB-231 (triple-negative breast cancer), T-47D (hormone-dependent breast cancer), HepG2 (hepatocellular carcinoma), A549 (lung adenocarcinoma), H69AR (multidrug-resistant small cell lung carcinoma), HuCCA-1 (cholangiocarcinoma derived from a patient), HeLa (cervical carcinoma), and two leukemia cell lines, HL-60 (acute promyelocytic leukemia) and MOLT-3 (T cell acute lymphoblastic leukemia). MRC-5 normal embryonic lung fibroblast cell line was used to represent normal cells. Chemotherapeutic drugs, doxorubicin and etoposide, were used as positive controls.
(§2) The cells were seeded into 96-well plates (100 µL for adherent cells and 75 µL for suspended cells) at a density of 5000–20,000 cells per well, depending on their growth rates. Adherent and suspended cells were then allowed to grow at 37 °C with 95% humidity and 5% CO2 for 24 h and 30 min, respectively. The cytotoxicity assay was initiated by adding an equal volume of cell culture medium containing tested compound at predetermined concentrations. Following 48 h of exposure, cell viability was determined using MTT assay for adherent cells[51],[52]or XTT assay for suspeended cells. Briefly, for adherent cells, 100 µL of the MTT reagent was added to each well, and the microtiter plates were further incubated for 2.5–4 h. The medium was subsequently replaced with 100 µL of DMSO to dissolve the purple formazan before the absorbance at 550 nm was measured using a microplate reader (a SpectraMax Plus 384) with a reference wavelength of 650 nm. For suspended cells, 75 µL of the XTT reagent was added to each well, and the cells were further incubated for 4 h. Afterwards, the absorbance of orange formazan at 492 nm was measured with a reference wavelength of 690 nm using a microplate reader.

[4] = tested on: HL-60 (acute promyelocytic leukemia); assay: Cytotoxic activity assay (XTT); format: cell-based, human; conditions: for IC50: Homo sapiens, HL-60, 48 h exposure, XTT, read-out: Cell lines, IC50 (μM) HL-60; for Selectivity Index (SI) values HL-60: SI = IC50 normal cell (MRC-5)/ IC50 cancer cell
Text: as §1, §2

[5] = tested on: MOLT-3 (T cell acute lymphoblastic leukemia); assay: Cytotoxic activity assay (XTT); format: cell-based, human; conditions: for IC50: Homo sapiens, MOLT-3, 48 h exposure, XTT, read-out: Cell lines, IC50 (μM) MOLT-3; for Selectivity Index (SI) values MOLT-3: SI = IC50 normal cell (MRC-5)/ IC50 cancer cell
Text: as §1, §2

[6] = tested on: T-47D (hormone-dependent breast cancer); assay: Cytotoxic activity assay (MTT); format: cell-based, human; conditions: for IC50: Homo sapiens, T47D, 48 h exposure, MTT, read-out: Cell lines, IC50 (μM) T47-D; for Selectivity Index (SI) values T47-D: SI = IC50 normal cell (MRC-5)/ IC50 cancer cell
Text: as §1, §2

[7] = tested on: MDA-MB-231 (triple-negative breast cancer); assay: Cytotoxic activity assay (MTT); format: cell-based, human; conditions: for IC50: Homo sapiens, MDA-MB-231, 48 h exposure, MTT, read-out: Cell lines, IC50 (μM) MDA-MB-231; for Selectivity Index (SI) values MDA-MB-231: SI = IC50 normal cell (MRC-5)/ IC50 cancer cell
Text: as §1, §2

[8] = tested on: HuCCA-1 (cholangiocarcinoma derived from a patient); assay: Cytotoxic activity assay (MTT); format: cell-based, human; conditions: for IC50: Homo sapiens, HuCC-A1, 48 h exposure, MTT, read-out: Cell lines, IC50 (μM) HuCCA-1; for Selectivity Index (SI) values HuCCA-1: SI = IC50 normal cell (MRC-5)/ IC50 cancer cell
Text: as §1, §2

[9] = tested on: A549 (lung adenocarcinoma); assay: Cytotoxic activity assay (MTT); format: cell-based, human; conditions: for IC50: Homo sapiens, A549, 48 h exposure, MTT, read-out: Cell lines, IC50 (μM) A549; for Selectivity Index (SI) values A549: SI = IC50 normal cell (MRC-5)/ IC50 cancer cell
Text: as §1, §2

[10] = tested on: H69AR (multidrug-resistant small cell lung carcinoma); assay: Cytotoxic activity assay (MTT); format: cell-based, human; conditions: for IC50: Homo sapiens, H69AR, 48 h exposure, MTT, read-out: Cell lines, IC50 (μM) H69AR; for Selectivity Index (SI) values H69AR: SI = IC50 normal cell (MRC-5)/ IC50 cancer cell
Text: as §1, §2

[11] = tested on: HepG2 (hepatocellular carcinoma); assay: Cytotoxic activity assay (MTT); format: cell-based, human; conditions: for IC50: Homo sapiens, HepG2, 48 h exposure, MTT, read-out: Cell lines, IC50 (μM) HepG2; for Selectivity Index (SI) values HepG2: SI = IC50 normal cell (MRC-5)/ IC50 cancer cell
Text: as §1, §2

[12] = tested on: HeLa (cervical carcinoma); assay: Cytotoxic activity assay (MTT); format: cell-based, human; conditions: for IC50: Homo sapiens, 48 h exposure, MTT, read-out: Cell lines, IC50 (μM) HeLa; for Selectivity Index (SI) values HeLa: SI = IC50 normal cell (MRC-5)/ IC50 cancer cell
Text: as §1, §2

Row | SMILES | IC50 [3] | IC50 [4] | Selectivity Index (SI) values HL-60 [4] | IC50 [5] | Selectivity Index (SI) values MOLT-3 [5] | IC50 [6] | Selectivity Index (SI) values T47-D [6] | IC50 [7] | Selectivity Index (SI) values MDA-MB-231 [7] | IC50 [8] | Selectivity Index (SI) values HuCCA-1 [8] | IC50 [9] | Selectivity Index (SI) values A549 [9] | IC50 [10] | Selectivity Index (SI) values H69AR [10] | IC50 [11] | Selectivity Index (SI) values HepG2 [11] | IC50 [12] | Selectivity Index (SI) values HeLa [12] | also measured
1 | Cl.Cl.Cl.Cl.Nc1cc(N)c(N)cc1N [FAKi, 1,2,4,5-benzenetetraamine tetrahydrochloride, reference compound] | – | – | – | – | – | – | – | – | – | – | – | – | – | – | – | – | – | – | – | mode of cell death [1]: non-apoptotic cell death; FAK phosphorylation [2]: clearly inhibited
2 | C=C1CC[C@H]2C(C)(C)CCC[C@]2(C)[C@H]1CC/C(C)=C/C(=O)NO [Compound 4j, (E)-N-Hydroxy-3-methyl-5-((1S,4aS,8aS)-5,5,8a-trimethyl-2-methylene-decahydronaphthalen-1-yl)pent-2-enamide] | > 120 µM | > 120 µM | 1.0 | > 120 µM | 1.0 | > 120 µM | 1.0 | > 120 µM | 1.0 | > 120 µM | 1.0 | > 120 µM | 1.0 | > 120 µM | 1.0 | > 120 µM | 1.0 | > 120 µM | 1.0 | –
3 | C=C1CC[C@H]2C(C)(C)CCC[C@]2(C)[C@H]1CC/C(C)=C/C(=O)NOC [Compound 4i, (E)-N-Methoxy-3-methyl-5-((1S,4aS,8aS)-5,5,8a-trimethyl-2-methylene-decahydronaphthalen-1-yl)pent-2-enamide] | 52.68 ± 0.03 µM | 24.9 ± 0.45 µM | 2.1 | 21.4 ± 1.29 µM | 2.5 | 41.3 ± 1.61 µM | 1.3 | 45 ± 0.86 µM | 1.2 | 49.8 ± 0.18 µM | 1.1 | 45.7 ± 0.63 µM | 1.2 | 96.91 ± 0.46 µM | 0.5 | 44.26 ± 0.4 µM | 1.2 | 53.8 ± 0.83 µM | 1.0 | –
4 | C=C1CC[C@H]2C(C)(C)CCC[C@]2(C)[C@H]1CC/C(C)=C/C(=O)NCCCCCCCC [Compound 4d, (E)-3-Methyl-N-octyl-5-((1S,4aS,8aS)-5,5,8a-trimethyl-2-methylenedecahydronaphthalen-1-yl)pent-2-enamide] | > 120 µM | > 120 µM | 1.0 | > 120 µM | 1.0 | > 120 µM | 1.0 | > 120 µM | 1.0 | > 120 µM | 1.0 | > 120 µM | 1.0 | > 120 µM | 1.0 | > 120 µM | 1.0 | > 120 µM | 1.0 | –
5 | C=C1CC[C@H]2C(C)(C)CCC[C@]2(C)[C@H]1CC/C(C)=C/C(=O)Nc1ccccc1 [Compound 4e, (E)-3-Methyl-N-phenyl-5-((1S,4aS,8aS)-5,5,8a-trimethyl-2-methylene-decahydronaphthalen-1-yl)pent-2-enamide] | > 120 µM | 60.6 ± 4.97 µM | 2.2 | 25.9 ± 1.88 µM | 5.1 | > 120 µM | 1.0 | > 120 µM | 1.0 | > 120 µM | 1.0 | 46.9 ± 1.28 µM | 2.8 | > 120 µM | 1.0 | > 120 µM | 1.0 | 98.11 ± 0.08 µM | 1.3 | –
6 | C=C1CC[C@H]2C(C)(C)CCC[C@]2(C)[C@H]1CC/C(C)=C/C(=O)NCC(=O)OC [Compound 4q, Methyl ((E)-3-methyl-5-((1S,4aS,8aS)-5,5,8a-trimethyl-2-methylenedeca-hydronaphthalen-1-yl)pent-2-enoyl)glycinate] | 65.29 ± 0.11 µM | 26 ± 0.55 µM | 2.5 | 14.9 ± 0.32 µM | 4.4 | 71.3 ± 2.07 µM | 0.9 | 46.2 ± 1.89 µM | 1.4 | 81.1 ± 2.42 µM | 0.8 | 43.8 ± 3.08 µM | 1.5 | 61.4 ± 2.03 µM | 1.1 | 73.89 ± 0.3 µM | 0.9 | 39.1 ± 0.78 µM | 1.7 | –
7 | C=C1CCC2C(C)(C)CCC[C@]2(C)[C@H]1CC/C(C)=C/C=O (stereo partly drawn) [Compound 3, (E)-3-methyl-5-((1S,8aS)-5,5,8a-trimethyl-2-methylenedecahydronaphthalen-1-yl)pent-2-enal] | 125.8 ± 0.46 µM | 56.4 ± 1.37 µM | 2.2 | 37.7 ± 3.2 µM | 3.3 | 93.9 ± 1.54 µM | 1.3 | 64.1 ± 1.8 µM | 2.0 | 131.4 ± 1.14 µM | 1.0 | 142 ± 2.69 µM | 0.9 | > 120 µM | 0.7 | 122.2 ± 1.03 µM | 1.0 | 77.4 ± 1.47 µM | 1.6 | –
